Test results from patent US8906858B2, “Method for the prophylactic or therapeutic treatment of glucocorticoid-induced osteoporosis” (Fritz-Lipmann-Institut E. V. Leibniz-Institut Fuer …, priority 2010, dated 2014).
“Also recorded” adds a separate entry of the source. Like-named read-outs stand apart in the source and are kept apart here.

Experiments:
[1] = test system: Cxcl10 and IL-6 mRNA expression; conditions: primary osteoblasts, 10^−6 M CpdA, 6 h
Method: (§1) FIG. 18. […] B) After 6 h of cultivation, IL-11 mRNA expression levels were measured from total RNA extracts. C) IL-11 protein was measured in the supernatant using ELISA after 36 h of culture (n=3; Beta-actin was used for standardisation). *P<0.05, **P<0.01; 1-way ANOVA followed by Dunnett's multiple comparison test. […] E) Western blot analysis is shown for STAT3 phosphorylation of bones from GR^Runx2Cre mice subjected to organ cultures, treated as in D for 36 h.

IL-11 signaling = conditions: primary osteoblasts, 10^−6 M CpdA
Method: as §1

DBA/1 mice = conditions: CpdA (300 ug) daily for 8 d
Method: (§2) FIG. 19. […] A) Cells were fixed and stained for ALP activity after 10 d and for mineralization of the matrix using Alizarin red after 20 d of culture. B) mRNA expression levels of osteoblast marker genes are shown, indicated as arbitrary units of actin expression.
(§3) FIG. 22. Determination of alkaline phosphatase activity (ALP) and corresponding IL-11 levels with ELISA 48 hrs after induction. A) Primary osteoblasts of wild type mice were cultured for 10 days with osteogenic inducers (OI) or 0.5 ng/ml IL-11 compared to untreated cells (ctr). Cells were fixed and stained for alkaline phosphatase activity (ALP). The corresponding IL-11 levels were determined with ELISA 48 hrs after induction.

primary osteoblasts = conditions: 10^−6 M CpdA, OI differentiation
Method: as §2, §3

[2] = test system: Mouse embryonic fibroblasts; assay: Functional screening assay, automated fluorescent microscopy of ALP activity and cytokines; type: cell-based
Method: Automated fluorescent microscopy for high content screening of factors involved in osteoblast differentiation. (A) In osteogenic differentiated (OI) wild type MEFs ALP activity is shown by a fluorescent product (ELF®, green) and nuclei are indicated by DRAQ5® staining (red).
500 Mouse embryonic fibroblasts are seeded per 384 well (2000 cells into a 96 well) until confluency (approx. 2 days). […] 3.7% Formalin is added (50 μl).
Differentiation of osteoblasts treated either with agents to be tested or with RNAi will be determined by staining for alkaline phosphatase activity (ALP kit; Sigma, Inc. or ELF® Phosphatase Detection Kit, ATCC). The preserved anti-inflammatory activity is monitored by immunhistochemical staining with antibodies against IL-6 and CXCL10. The avoidance to affect IL-11 and LIF expression is additionally determined by immunohistochemistry as well.
After fixation, the wells are stained with the nuclear stain DRAQ5 and a fluorescent substrate (ELF) for alkaline phosphatase activity. This allows monitoring cellular ALP activity by automatic microscopy and evaluation with the respective software (FIG. 17).
Immunohistochemical staining towards the antibodies IL-6, CXCL10, IL-11 and/or LIF follows as a last step. Fluorescent signals of the antibodies will be monitored by automatic microscopy and evaluation with the respective software.

MMP-13 = conditions: monocytic cells
[3] = test system: osteoblastogenesis in bone marrow / long bones of mice; assay: CFU-OBs and Col1a1 mRNA in long bones after three days of prednisolone; type: in vivo, mouse; conditions: for Col1a1 expression in long bones / osteoblastogenesis, colony forming units of osteoblasts (CFU-OBs): three days of prednisolone
Text: (G) Number of CFU-OBs within the bone marrow/leg (femur and tibia) and (H) qRT-PCR-determined Col1a1 mRNA expression in long bones of mice treated with placebo or prednisolone for three days.
(F) Number of CFU-OBs within the bone marrow/leg and (G) qRT-PCR-determined Col1a1 mRNA expression in long bones of mice treated with placebo or prednisolone for three days.
CFU-OBs per leg were obtained by counting Alizarin Red-positive colonies of 2×10^6 bone marrow cells (excluding erythrocytes) plated per 6-well after 20 days under osteogenic conditions.

bone tissue of mice = assay: Osteoblast proliferation and apoptosis in vivo (BrdU, TUNEL); set-up: species or system mouse; conditions: prednisolone for one day
Method: FIG. 10. Proliferation and apoptosis in bones of prednisolone treated GR^Runx2Cre animals. (A, B). GR^flox and GR^Runx2Cre mice were treated with prednisolone for one day pulsed with BrdU for 4 hours and histological sections of long bones stained with anti-BrdU antibody (A) and with a TUNEL kit (B). BM: bone marrow; Scale bar: 20 μm.
Mice were treated with prednisolone (12.5 mg/kg/d) for one day and they got pulsed with 10 μg/g body weight BrdU 4 hours before dissection. Decalcified deparaffined femur sections were stained with the In situ Cell Death Detection Kit (Roche) for apoptosis and rat anti-BrdU (Abcam) following Peroxidase coupled anti-rat IgG for proliferation.

[4] = test system: Female 9 week old FVB/N mice; assay: LIF administration to prednisolone treated mice, MicroCT analysis; type: in vivo, mouse
Method: FIG. 23. LIF treatment elevates bone density of prednisolone treated mice. Female 9 week old FVB/N mice were treated with control pellets (sham), prednisolone (Pred) releasing pellets (12 mg/kg/day releasing rate) and were treated one day later with PBS and LIF i.p. injections twice a day (0.2 mg/kg/day) until 15 days. Mice were sacrificed on day 16. MicroCT Analysis was performed and representative longitudinal sections shown in (A), Bone Volume/Tissue volume determined (B) and trabecular thickness and trabecular numbers calculated (C, D). n=6, * p<0.05, ** p<0.01, *** p<0.001
After 15 days the bone mineral density was determined by micro computertomography (FIG. 23).
Female 9 week old FVB/N mice were treated with control pellets (sham), prednisolone (Pred) releasing pellets (12 mg/kg/day releasing rate) and were treated one day later with PBS and LIF i.p. injections twice a day (0.2 mg/kg/day) until 15 days. Mice were sacrificed on day 16.

[5] = test system: primary wild type osteoblasts; assay: Soluble factors added to osteoblasts during osteogenic induction in presence or absence of Dex; type: cell-based, mouse; conditions: day 10, with Dex
Method: FIG. 7. Differential gene regulation in GR^dim osteoblasts and bone organs by GCs and involvement of AP-1 in suppression of IL-11 in osteoblast differentiation. (A-E) Primary osteoblasts were grown until confluence and treated as described in FIG. 4A. qRT-PCR-determined mRNA expression levels of GILZ, Per-1, KLF15, Lif (LIF) and II11 (IL-11) after six hours. (F-H) qRT-PCR-determined mRNA expression level of IL-11 in organ cultures of GR mutant fetal hind legs (F), in dN^Runx2Cre osteoblasts (G) and c-jun^null MEFs (H) after six hours treatment. (I) Chromatin immunoprecipitation of MEFs after six hours. […] IgG precipitation served as negative control and amplification of the input as positive control. […] At day 10, ALP activity was determined and at day 20, Alizarin Red staining was performed. (K) Quantification of ALP-positive cells treated as in (J) after 10 days. (L) qRT-PCR-determined Runx2 mRNA expression level in cells treated as in (J) after 10 days.
FIG. 13. Effects of GR regulated soluble factors on osteoblast cell numbers. […] At day 10 cell counts were determined by automatic microscopy. Data are represented as mean+/−SEM. *<0.05.
FIG. 14. Effects of GR regulated soluble factors on osteoblast cell differentiation. Primary wild type osteoblasts were differentiated with or without Dex. At day 10 the specific ALP activity was determined and is depicted as ALP positive cells in percent in the absence or presence of NGF (A), IL-6 (B), EGF (C) and LIF (D). Data are represented as mean+/−SEM. * p<0.05; ** p<0.01.
Primary osteoblasts were isolated from either embryonic (E18.5) or neonatal calvaria by sequential digestions and cultivated as previously described (David et al., 2005). c-Jun-deficient cells were obtained from previously described mice (Schreiber et al., 1999). […] Differentiation of osteoblasts was determined by staining for ALP activity (ALP kit, Sigma or ELF® Phosphatase Detection Kit, ATCC) or by Alizarin Red staining (Sigma) at indicated time points. Apoptosis was detected by In situ Cell Death Detection Kit (Roche), and proliferation with fluorescent immunohistochemistry using mouse anti-Ki-67 (BD Pharmingen™) and Alexa Fluor® 594-labeled donkey anti-mouse IgG (Molecular Probes™). Quantification of the stainings and cell numbers according to DAPI labeling was performed by automated microscopy using Cellomics ArrayScan and software HCS Scan® (Thermo-Fischer). The factors EGF (Calbiochem), NGF2 (Sigma), IL-6 (ImmunoTools), IL-11 (Antigenix America, Inc.) and LIF (Chemicon) were added to the culture after differentiation at concentrations of 0.8, 4 and 20 ng/ml. qRT-PCR was performed as previously described (Tuckermann et al., 2007). Primer information can be provided upon request.

human cells = conditions: cited from earlier work
[6] = wild type (GR^flox) mice, prednisolone for two weeks

Method for 10-week-old female mice: Vertebral bodies of 10-week-old female GR^Runx2cre and GR^flox mice treated with placebo (Plac) or prednisolone (Pred; 12.5 mg/kg/day) for two weeks were analyzed by (A) von Kossa staining of undecalcified sections and (B) histomorphometry of BV/TV and TbTh. (C) DPD/Cr levels in urine of mice after prednisolone treatment at indicated times. (D) Histomorphometry of osteoblast number/bone perimeter (NOb/BPm), osteocyte number/bone area (NOy/BAR) and osteoclast number/bone perimeter (NOc/BPm). (E) Fluorescent micrographs of dual calcein labeling and (F) its quantitative analysis of bone formation rate/bone surface (BFR/BS). (G) Number of CFU-OBs within the bone marrow/leg (femur and tibia) and (H) qRT-PCR-determined Col1a1 mRNA expression in long bones of mice treated with placebo or prednisolone for three days. (I) Fluorescent micrographs of dual calcein labeling and (J) its quantitative analysis of BFR/BS in tibiae of GR^LysMcre and corresponding GR^flox control mice.
(A) Fluorescent micrographs of dual calcein labeling and (B) its quantitative analysis of BFR/BS in vertebrae of GR^dim and wild type (wt) mice treated as described in FIG. 2. (C) Vertebral bodies were analyzed by von Kossa staining of undecalcified sections. (D) Histomorphometry of BV/TV, TbTh, (E) NOb/BPm, NOy/BAR and NOc/BPm. (F) Number of CFU-OBs within the bone marrow/leg and (G) qRT-PCR-determined Col1a1 mRNA expression in long bones of mice treated with placebo or prednisolone for three days. (H) DPD/Cr levels in urine of mice after prednisolone treatment at indicated times.
All animal experiments were performed in accordance with accepted standards of animal welfare and with permission of the responsible authorities of Baden-Württemberg and Thüringen. […] To induce osteoporosis, prednisolone (or a placebo control) was applied for 14 days by subcutaneous implantation of slow-release pellets resulting in a calculated dose of 12.5 mg/kg/d (15 mg; 60-day release; Innovative Research of America, Inc.) in 10-week-old female mice.
Parameters of static and dynamic histomorphometry were quantified on toluidine blue-stained undecalcified proximal tibia and lumbar vertebral sections as described previously (Amling et al., 1999) using the Osteo-histomorphometry system (Osteometrics, Atlanta, Ga., USA) (Parfitt et al., 1987). Osteocytes were assessed at the cortical bone by OsteoMeasure™ software. To assess dynamic histomorphometric indices, mice were given two injections of calcein, nine and two days before dissection. Fluorochrome measurements for the determination of the bone formation rate were performed on two nonconsecutive 12-μm-thick sections for each animal. Statistical differences between the groups (n=5-6) were assessed by the Student's t-test.

For `CNCC(Cl)c1ccc(OC(C)=O)cc1.Cl` (stereo not drawn) [Compound A], the proinflammatory gene expression [1] was “inhibits proinflammatory gene expression”, the IL-11 signaling (IL-11 signaling) was “not IL-11 signaling” and the “osteoblast markers in vivo” value (DBA/1 mice) was “does not affect”. The “osteoblast differentiation and osteoblast markers in vitro” value (primary osteoblasts) was “does not affect”, the “result in the method for identifying agents” value [2] was “tested as a hit” and the “AP-1 dependent gene MMP-13” value (MMP-13) was “repressed”.
For `C[C@]12C=CC(=O)C=C1CC[C@@H]1[C@@H]2[C@@H](O)C[C@@]2(C)[C@H]1CC[C@]2(O)C(=O)CO` [prednisolone], the “Col1a1 expression in long bones” value ([3]; GR^Runx2Cre mice) was “remained unchanged”, the “osteoblastogenesis, colony forming units of osteoblasts (CFU-OBs)” value ([3]; GR^Runx2Cre mice) was “not in GR^Runx2Cre mice” and the Col1a1 expression ([3]; GR^dim and wild type mice) was “similarly reduced in both genotypes”. For the same compound, the “Osteoblastogenesis in vitro (CFU-OBs)” value ([3]; GR^dim and wild type mice) was “as efficiently suppressed in GR^dim as in wild type mice”, the “Col1a1 expression in long bones” value ([3]; GR^flox mice) was “strongly reduced” and the “osteoblastogenesis, colony forming units of osteoblasts (CFU-OBs)” value ([3]; GR^flox mice) was “strongly impaired”. The “TUNEL and BrdU pulse labeling within bone tissue” value (bone tissue of mice) was “did not alter”, the trabecular thickness ([4]; prednisolone pellets 12 mg/kg/day, also in LIF treated animals) was “reduction of trabecular thickness” and the bone formation rate (10-week-old female mice; GR^LysMCre and wild type mice, prednisolone for two weeks) was “similarly reduced”. The “numbers of osteocytes, osteoblasts and osteoblast surface” value (10-week-old female mice; GR^Runx2Cre mice) was “unaltered”, the “bone mineral density and trabecular thickness” value (10-week-old female mice; GR^Runx2Cre mice, prednisolone for two weeks) was “not affected” and the “bone formation, dynamic histomorphometry following dual calcein labeling” value (10-week-old female mice; GR^Runx2cre mice) was “fully protected”. The bone formation (10-week-old female mice; GR^dim and wild type mice) was “similarly repressed”, the “bone mass and trabecular thickness of the vertebrae” value (10-week-old female mice; GR^dim and wild type mice) was “reduced to a comparable degree” and the “osteoblast and osteocyte numbers” value (10-week-old female mice; GR^dim and wild type mice) was “strong reduction”. The osteoclast numbers (10-week-old female mice; GR^dim and wild type mice) was “not changed”, the “resorption (DPD/Cr)” value (10-week-old female mice; GR^dim and wild type mice) was “slightly decreased” and the osteoclast numbers (10-week-old female mice; GR^flox and GR^Runx2Cre mice) was “not affected”. For the same compound, the “Resorption, deoxypyridinoline (DPD/Cr) levels” value (10-week-old female mice; GR^flox and GR^Runx2Cre mice, urine) was “slightly decreased”, the “numbers of osteocytes, osteoblasts and osteoblast surface” value (10-week-old female mice; GR^flox mice) was “decreased” and the “unspecific toxic effects of the prednisolone dose” value (10-week-old female mice; mouse, in vivo) was “no unspecific toxic effects”. The reduction of osteocytes (10-week-old female mice; prednisolone treated mice) was 20-35%, the “bone formation, dynamic histomorphometry following dual calcein labeling” value (10-week-old female mice; vertebrae of wild type mice) was “almost complete inhibition” and the “bone mineral density in vertebral bones” value (10-week-old female mice; [6]) was “reduced”. For the same compound, the trabecular thickness (10-week-old female mice; [6]) was “decreased”.
With “IL-6: Interleukin 6 added to osteoblast cultures” the “rescue of Dex-reduced osteoblast cell numbers” value [5] was “neither rescued the reduced cell numbers”.
For “LIF: Leukaemia inhibitory factor, secreted polyfunctional cytokine; recombinant protein”, the “rescue of Dex-impaired osteoblast differentiation (ALP positive cells)” value [5] was “potently antagonized; also recorded: ameliorated the inhibition of osteoblast differentiation”, the “rescue of Dex-reduced osteoblast cell numbers” value [5] was “not rescuing” and the trabecular number ([4]; LIF i.p. 0.2 mg/kg/day, 15 days) was “strong increase”. For the same compound, the “bone mass (bone volume/tissue volume)” value ([4]; sham treated and prednisolone treated animals, LIF i.p. 0.2 mg/kg/day, 15 days) was “increases bone mass”.
In the case of “epidermal growth factor: epidermal growth factor, evokes HB-EGF signaling in osteoblasts (NSDSECPLSHDGYCLHDGVCMYIEALDKYACNCVVGYIGERCQYRDLKWWELR; not fully specified; Epidermal growth factor; UniProt P01133 971-1023, looked up)”, the “rescue of Dex-impaired osteoblast differentiation (ALP positive cells)” value [5] is reported as “did not prevent the inhibition of differentiation” and the “rescue of Dex-reduced osteoblast cell numbers” value [5] is reported as “counteracted the reduction in cell number”.
For “human LIF: human mature LIF polypeptide of 180 amino acid residues”, the “activity on human and mouse cells” value (human cells) is listed as “equally active on both human and mouse cells”.
